# Source: patent US20260285850A1, “SUBSTITUTED OXAZOLIDINONES AND IMIDAZOLINONES AS HERBICIDES” (FMC CORPORATION, priority 2023, published 2026)
# Tests used:
# Assay type in all cases: in vivo
# [1] = tested on: galium (catchweed bedstraw, Galium aparine); assay: Test A postemergence application, visual injury rating 0-100; settings: 10 days
# In short: (§1)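 Scale 0–100 (no effect to complete control), visual, versus untreated controls, read 10 days after application. Application: preemergence directed spray onto seeded loam–sand soil, or postemergence to young plants; formulation in non-phytotoxic solvent with surfactant.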
# [2] = tested on: oat, wild (wild oat, Avena fatua); assay: as above; settings: 10 days
# In short: as §1
# [3] = tested on: barnyardgrass (Echinochloa crus-galli); assay: as above; settings: 10 days
# In short: as §1
# [4] = tested on: horseweed (Erigeron canadensis); assay: as above; settings: 10 days
# In short: as §1
# [5] = tested on: ryegrass, Italian (italian ryegrass, Lolium multiflorum); assay: as above; settings: 10 days
# In short: as §1
# [6] = tested on: green foxtail (Setaria viridis); assay: as above; settings: 10 days
# In short: as §1
# [7] = tested on: kochia (Bassia scoparia); assay: as above; settings: 10 days
# In short: as §1
# [8] = tested on: soybean (Glycine max); assay: as above; settings: 10 days
# In short: as §1
# [9] = tested on: wheat (Triticum aestivum); assay: as above; settings: 10 days
# In short: as §1
# [10] = tested on: palmer (palmer amaranth, palmer pigweed, Amaranthus palmeri); assay: as above; settings: 10 days
# In short: as §1
# [11] = tested on: blackgrass (Alopecurus myosuroides); assay: as above; settings: 10 days
# In short: as §1
# [12] = tested on: corn (Zea mays); assay: as above; settings: 10 days
# In short: as §1
# [13] = tested on: ragweed (common ragweed, Ambrosia artemisiifolia); assay: as above; settings: 10 days
# In short: as §1
# [14] = tested on: ducksalad (Heteranthera limosa); assay: Test B flooded paddy test, visual plant response rating 0-100; settings: 250 g ai/ha, Flood, applied to paddy water, evaluated after 13 days
# In short: (§2)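 Visual evaluation after 13 days. Water-applied treatment, 3 cm flood depth held constant, plants at 2-leaf stage at treatment.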
# [15] = tested on: sedge, umbrella (small-flower umbrella sedge, Cyperus difformis); assay: as above; settings: 250 g ai/ha, Flood, applied to paddy water, evaluated after 13 days
# In short: as §2
# [16] = tested on: barnyardgrass (Echinochloa crusgalli); assay: as above; settings: 250 g ai/ha, Flood, applied to paddy water, evaluated after 13 days
# In short: as §2
# [17] = tested on: rice (Oryza sativa); assay: as above; settings: 250 g ai/ha, Flood, applied to paddy water, evaluated after 13 days
# In short: as §2
# [18] = tested on: oat, wild (wild oat, Avena fatua); assay: Test A preemergence soil spray, visual injury rating 0-100; settings: 10 days, 0 = no effect, 100 = complete control
# In short: as §1
# [19] = tested on: barnyardgrass (Echinochloa crus-galli); assay: as above; settings: 10 days, 0 = no effect, 100 = complete control
# In short: as §1
# [20] = tested on: ryegrass, Italian (italian ryegrass, Lolium multiflorum); assay: as above; settings: 10 days, 0 = no effect, 100 = complete control
# In short: as §1
# [21] = tested on: green foxtail (Setaria viridis); assay: as above; settings: 10 days, 0 = no effect, 100 = complete control
# In short: as §1
# [22] = tested on: kochia (Bassia scoparia); assay: as above; settings: 10 days, 0 = no effect, 100 = complete control
# In short: as §1
# [23] = tested on: soybean (Glycine max); assay: as above; settings: 10 days, 0 = no effect, 100 = complete control
# In short: as §1
# [24] = tested on: wheat (Triticum aestivum); assay: as above; settings: 10 days, 0 = no effect, 100 = complete control
# In short: as §1
# [25] = tested on: palmer (palmer amaranth, palmer pigweed, Amaranthus palmeri); assay: as above; settings: 10 days, 0 = no effect, 100 = complete control
# In short: as §1
# [26] = tested on: blackgrass (Alopecurus myosuroides); assay: as above; settings: 10 days, 0 = no effect, 100 = complete control
# In short: as §1
# [27] = tested on: corn (Zea mays); assay: as above; settings: 10 days, 0 = no effect, 100 = complete control
# In short: as §1
# [28] = tested on: ragweed (common ragweed, Ambrosia artemisiifolia); assay: as above; settings: 10 days, 0 = no effect, 100 = complete control
# In short: as §1
# [29] = 31 g ai/ha, postemergence, 0 = no effect, 100 = complete control
# [30] = Postemergence, 125 g ai/ha, 0 is no effect, 100 is complete control
structure (smiles),measurement,setting,value
CCOC(=O)C1=CCC(NC(=O)C2(C)CN(c3cc(F)cc(F)c3)C(=O)O2)C1 (stereo not shown) [Compound 15],Galium plant response rating (0-100),[1]; [29],80
same,Galium plant response rating (0 to 100 scale),[1]; [30],90
same,"Oat, Wild plant response rating (0-100)",[2]; [29],90
same,"Oat, Wild plant response rating (0 to 100 scale)",[2]; [30],90
same,Barnyardgrass plant response rating (0-100),[3]; [29],100
same,Barnyardgrass plant response rating (0 to 100 scale),[3]; [30],100
same,Horseweed plant response rating (0-100),[4]; [29],0
same,Horseweed plant response rating (0 to 100 scale),[4]; [30],0
same,"Ryegrass, Italian plant response rating (0-100)",[5]; [29],80
same,"Ryegrass, Italian plant response rating (0 to 100 scale)",[5]; [30],90
same,"Foxtail, Green plant response rating (0-100)",[6]; [29],90
same,"Foxtail, Green plant response rating (0 to 100 scale)",[6]; [30],90
same,Kochia plant response rating (0-100),[7]; [29],70
same,Kochia plant response rating (0 to 100 scale),[7]; [30],70
same,Soybean plant response rating (0-100),[8]; [29],60
same,Soybean plant response rating (0 to 100 scale),[8]; [30],70
same,Wheat plant response rating (0-100),[9]; [29],90
same,Wheat plant response rating (0 to 100 scale),[9]; [30],90
same,"Amaranth, Palmer plant response rating (0-100)",[10]; [29],50
same,"Amaranth, Palmer / Pigweed, Palmer plant response rating (0 to 100 scale)",[10]; [30],90
same,Blackgrass plant response rating (0-100),[11]; [29],70
same,Blackgrass plant response rating (0 to 100 scale),[11]; [30],100
same,Corn plant response rating (0-100),[12]; [29],100
same,Corn plant response rating (0 to 100 scale),[12]; [30],100
same,Ragweed plant response rating (0-100),[13]; [29],40
same,Ragweed plant response rating (0 to 100 scale),[13]; [30],50
same,"Plant response rating, Ducksalad (0 to 100 scale, 0 is no effect and 100 is complete control)",[14],80
same,"Plant response rating, Sedge, Umbrella (0 to 100 scale, 0 is no effect and 100 is complete control)",[15],70
same,"Plant response rating, Barnyardgrass (0 to 100 scale, 0 is no effect and 100 is complete control)",[16],60
same,"Plant response rating, Rice (0 to 100 scale, 0 is no effect and 100 is complete control)",[17],65
same,"Oat, Wild plant response rating (0-100)",[18]; 31 g ai/ha,0
same,"Oat, Wild plant response rating (0 to 100 scale)",[18]; 125 g ai/ha,50
same,Barnyardgrass plant response rating (0-100),[19]; 31 g ai/ha,0
same,Barnyardgrass plant response rating (0 to 100 scale),[19]; 125 g ai/ha,100
same,"Ryegrass, Italian plant response rating (0-100)",[20]; 31 g ai/ha,80
same,"Ryegrass, Italian plant response rating (0 to 100 scale)",[20]; 125 g ai/ha,90
same,"Foxtail, Green plant response rating (0-100)",[21]; 31 g ai/ha,30
same,"Foxtail, Green plant response rating (0 to 100 scale)",[21]; 125 g ai/ha,100
same,Kochia plant response rating (0-100),[22]; 31 g ai/ha,0
same,Kochia plant response rating (0 to 100 scale),[22]; 125 g ai/ha,90
same,Soybean plant response rating (0-100),[23]; 31 g ai/ha,0
same,Soybean plant response rating (0 to 100 scale),[23]; 125 g ai/ha,30
same,Wheat plant response rating (0-100),[24]; 31 g ai/ha,50
same,Wheat plant response rating (0 to 100 scale),[24]; 125 g ai/ha,90
same,"Amaranth, Palmer plant response rating (0-100)",[25]; 31 g ai/ha,50
same,"Amaranth, Palmer plant response rating (0 to 100 scale)",[25]; 125 g ai/ha,100
same,Blackgrass plant response rating (0-100),[26]; 31 g ai/ha,0
same,Blackgrass plant response rating (0 to 100 scale),[26]; 125 g ai/ha,40
same,Corn plant response rating (0-100),[27]; 31 g ai/ha,20
same,Corn plant response rating (0 to 100 scale),[27]; 125 g ai/ha,60
same,Ragweed plant response rating (0-100),[28]; 31 g ai/ha,0
same,Ragweed plant response rating (0 to 100 scale),[28]; 125 g ai/ha,0
